From US20090203685A1, “ANTI-PROLIFERATIVE COMPOUNDS FROM A 3-ARYL-COUMARINE OR 3-ARYL-QUINOLIN-2-ONE AND USES THEREOF” (EOS (ETHICAL ONCOLOGY SCIENCE) S.P.A., priority 2006, published 2009)
Values joined by “and” are separate entries in the source; they are usually repeats but may differ in a detail not shown here. Equal entries are not always repeated. Structures can show the parent of a compound that is named as a salt.

Assays:
U937 cells = test: Proliferation test ViaLight HS, U937 cells (Example 8); assay type: cell-based, human; conditions: 72 h incubation, range = multiple experiments, otherwise individual experiments
Description: 2C Proliferation test ViaLight® HS High Sensitivity Cytotoxicity and Cell Proliferation BioAssay Kit
This protocol allows the determination of the cytostatic and cytotoxic activities of compounds to be tested on mammalian cells in culture and was carried out essentially according to the manufacturer's recommendations.
Cells are suspended in 15 mL of their respective media and are enumerated. They are then diluted in their media in order to obtain: • 2500 cells per 90 μL per well for MRC5 cells • 5000 cells per 90 μL per well for all other cell lines. Cells are then seeded in a 96 well plate, and incubated at least 4 hours in the incubator at 37° C. in 5% CO2.
The molecules to be tested are diluted in DMEM with DMSO in order to obtain the following dilutions: • dilution at 250 μM/1% DMSO • dilution at 50 μM/1% DMSO • dilution at […] • dilution at 2 μM/1% DMSO • dilution at 400 nM/1% DMSO • dilution at 80 nM/1% DMSO For each well comprising 90 μL of cell suspension, 10 μL of a solution of the compound to be tested is added, with the 6 different concentrations. The plate is then incubated during 72 hours. One control plate is contacted with 10 μL of DMEM 1% DMSO, without compound to be tested. 50 μL of lysis buffer (test Vialight® lysis buffer) is added in each well of the control plate and the plate is incubated 10 minutes under hood.
Then, 100 μL of test buffer (test Vialight® test buffer) is added in each well and the control plate is incubated during 2 minutes. The luminescence is read in each well. The mean luminescence for each type of cells is called T0.
After the 72 h incubation, in order to determine the viability, 50 μL of lysis buffer (test Vialight® lysis buffer) is added in each well of the plates and the plates are incubated 10 minutes under hood.
Then, 100 μL of test buffer (test Vialight® test buffer) is added in each well and the plates are incubated during 2 minutes. The luminescence is read in each well. For each type of cell, the mean luminescence in the well not containing the compound is called C72 and the mean luminescence in well containing a given concentration of a compound to be tested is called T72. For each dilution (concentration of compound to be tested), T0 and T72 values are compared.
The graph is plotted for the different concentrations of compound and • GI50 (50% of growth inhibitory) is determined, this is the dose producing 50% of cell growth (intersection at Y=50); • TGI (total growth inhibitory) is determined on the graph, this is the dose producing the total arrest of the cell growth (intersection at Y=0); and • LC50 (50% of lethal concentration) is determined, this is the dose producing the death of 50% of the cells (intersection at Y=−50).
Following the protocol described in Example 2C, different compounds according to the invention have been tested for their cytostatic and cytotoxic activities on mammalian cells in culture (specifically U937 cells).
The GI50 (50% of growth inhibitory) has been determined for all the following compounds, i.e. the dose producing 50% of cell growth inhibition.
Where the GI50 provided is in the form of a range, it means that multiple experiments, whose results fall within the range indicated, were performed. Otherwise, results of individual experiments are provided.

[1] = biological target: T1, interaction between 6×His-Bcl-xL and GST-BF8 (Homo sapiens, UniProt Q07817); test: Pull down assay, Bcl-xL/BF8 in vitro interaction; assay type: binding; conditions: 50 μM, 5% DMSO; Western blot
T1 construct: made in house; host or cells: E. coli
T1 sequence (Q07817 whole entry): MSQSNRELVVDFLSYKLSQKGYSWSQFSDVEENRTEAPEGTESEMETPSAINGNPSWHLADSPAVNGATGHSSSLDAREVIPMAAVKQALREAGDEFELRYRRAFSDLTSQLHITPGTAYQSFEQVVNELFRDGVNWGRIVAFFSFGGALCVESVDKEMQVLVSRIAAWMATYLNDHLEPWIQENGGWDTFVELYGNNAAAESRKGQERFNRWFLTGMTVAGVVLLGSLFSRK
Description: FIG. 3: Inhibition of the interaction between Bcl-xL and BF8, a peptide aptamer that targets the hydrophobic groove of BCL-2 family members. […]
C+: 6×His-Bcl-xL captured by GST-BF8, in presence of 5% DMSO. (02): 6×His-Bcl-xL captured by GST-BF8, in presence of 50 μM of compound 02 (in 5% DMSO). (01): 6×His-Bcl-xL captured by GST-BF8, in presence of 50 μM of compound 01 (in 5% DMSO).
A peptide aptamer (dubbed BF8) has been selected against the anti-apoptotic protein Bfl1, member of the BCL-2 family. […] Two lines of evidence indicate that BF8 binds the hydrophobic groove of anti-apoptotic BCL-2-like proteins. First, the amino-acid sequence of its variable region bears similarities with the sequence of the BH3 domains of pro-apoptotic members of the BCL-2 family (such as Bak or Bax), known to bind the anti-apoptotic proteins via this hydrophobic groove. Second, BF8 no longer binds a mutated variant of Bfl-1 that bears an amino-acid substitution within the said hydrophobic groove.
A Bcl-xL/BF8 in vitro interaction assay was developed to examine the capacity of the compounds of the invention to disrupt this interaction by competition with the peptide aptamer. 6×His-Bcl-xL and GST-BF8 recombinant fusion proteins were expressed in E. coli and purified using affinity chromatography. […]

[2] = system: melanoma, breast, cervical, prostate, colon tumor cells; conditions: cited from earlier work
[3] = in vivo; cited from earlier work

Row | SMILES | GI50 (U937 cells; Homo sapiens, U-937, 72 h) [nM] | further results
1 | COc1cc(/N=C(\SC)N(C)C(=O)/C=C/c2ccco2)ccc1-c1cc2ccccc2oc1=O [Compound 24, 1-((E)-3-furan-2-yl-acryloyl)-3-[3-methoxy-4-(2-oxo-2H-chromen-3-yl)-phenyl]-1,2-dimethyl-isothiourea] | 33 | –
2 | COc1cc(NC(=N)NC(=O)c2ccccc2)ccc1-c1cc2ccccc2[nH]c1=O [Compound 22, N-Benzoyl-N′-[3-methoxy-4-(2-oxo-1,2-dihydro-quinolin-3-yl)-phenyl]-guanidine] | 1000 | –
3 | COc1cc(N(C(C)=O)S(=O)(=O)c2cc(C)oc2C)ccc1-c1cc2ccccc2oc1=O [Compound 23, 2,5-dimethyl-furan-3-sulfonic acid acetyl-[3-methoxy-4-(2-oxo-2H-chromen-3-yl)-phenyl]-amide] | ~500 | –
4 | COc1cc(NS(=O)(=O)c2cc(C)oc2C)ccc1-c1cc2ccccc2oc1=O [Compound 13, N-[3-methoxy-4-(2-oxo-2H-chromen-3-yl)phenyl]-2,5-dimethylfuran-3-sulfonamide] | 100 | –
5 | COc1cc(NC(=S)Nc2ccc(N3CCOCC3)nc2)ccc1-c1cc2ccccc2oc1=O [Compound 08, 1-[3-methoxy-4-(2-oxo-2H-chromen-3-yl)-phenyl]-3-(6-morpholin-4-yl-pyridin-3-yl)-thiourea] | 1200 | –
6 | COc1cc(NC(=O)Nc2cccc(N(C)C)c2)ccc1-c1cc2ccccc2oc1=O [Compound 18, 1-(3-dimethylamino-phenyl)-3-[3-methoxy-4-(2-oxo-2H-chromen-3-yl)-phenyl]-urea.HCl] | 150 | –
7 | COc1cc(NC(=N)NC(=O)c2ccccc2)ccc1-c1cc2ccccc2oc1=O [Compound 07, N-(imino{[3-methoxy-4-(2-oxo-2H-chromen-3-yl)phenyl]amino}methyl)benzamide] | 630 | GI50 (U937 cells): 800 nM
8 | COC(=O)c1ccc(S(=O)(=O)Nc2ccc(-c3cc4ccccc4oc3=O)c(OC)c2)n1C [Compound 09, methyl 5-({[3-methoxy-4-(2-oxo-2H-chromen-3-yl)phenyl]amino}sulfonyl)-1-methyl-1H-pyrrole-2-carboxylate] | 500 to 600 | –
9 | COc1cc(NC(=O)Nc2ccccc2)ccc1-c1cc2ccccc2oc1=O [Compound 03, 1-[3-methoxy-4-(2-oxo-2H-chromen-3-yl)-phenyl]-3-phenyl-urea] | 610 | –
10 | COc1cc(NC(=N)NC(=O)/C=C/c2ccco2)ccc1-c1cc2ccccc2oc1=O [Compound 12, (2E)-3-(2-furyl)-N-(imino{[3-methoxy-4-(2-oxo-2H-chromen-3-yl)phenyl]amino}methyl)acrylamide] | 1600 to 2100 | –
11 | COc1cc(NC(=S)NC(=O)c2ccc(F)cc2)ccc1-c1cc2ccccc2oc1=O [Compound 05, 4-fluoro-N-({[3-methoxy-4-(2-oxo-2H-chromen-3-yl)phenyl]amino}carbonothioyl)benzamide] | 920 | GI50 (U937 cells): 1500 nM
12 | COc1cc(/N=C(/NC(=O)/C=C/c2ccco2)SC)ccc1-c1cc2ccccc2oc1=O [Compound 14, methyl N-[(2E)-3-(2-furyl)prop-2-enoyl]-Ar-[3-methoxy-4-(2-oxo-2H-chromen-3-yl)phenyl]imidothiocarbamate] | 220 | –
13 | COc1cc(NC(=S)NC(=O)/C=C/c2ccco2)ccc1-c1cc2ccccc2n(CCO)c1=O [Compound 21, 1-((E)-3-furan-2-yl-acryloyl)-3-{4-[1-(2-hydroxy-ethyl)-2-oxo-1,2-dihydro-quinolin-3-yl]-3-methoxy-phenyl}-thiourea] | ~90 | –
14 | COc1cc(N(C)C(=N)NC(=O)/C=C/c2ccco2)ccc1-c1cc2ccccc2oc1=O [Compound 19, N′-((E)-3-furan-2-yl-acryloyl)-N-[3-methoxy-4-(2-oxo-2H-chromen-3-yl)-phenyl]-N-methyl-guanidine] | 9200 | –
15 | COc1cc(NC(=S)NC(=O)c2ccccc2)ccc1-c1cc2ccccc2oc1=O [Compound 02, N-({[3-methoxy-4-(2-oxo-2H-chromen-3-yl)phenyl]amino}carbonothioyl)benzamide] | 600 to 860 | Inhibition of the in vitro interaction between 6×His-Bcl-xL and GST-BF8 [1]: inhibit
16 | COc1cc(/N=C(\SC)N(C)C(=O)c2ccc(F)cc2)ccc1-c1cc2ccccc2oc1=O [Compound 25, 1-(4-fluoro-benzoyl)-3-[3-methoxy-4-(2-oxo-2H-chromen-3-yl)-phenyl]-1,2-dimethyl-isothiourea] | 410 | –
17 | COC1=CC(c2cc3ccccc3[nH]2)=N/C1=C\c1[nH]c(C)cc1C [GX15-070] | – | Growth of melanoma, breast, cervical, prostate, colon tumor cells [2]: inhibit growth; MTD (maximal tolerated dose) [3]: approx 16 mg/kg
18 | COc1cc(NC(=S)Nc2ccc(N3CCOCC3)cc2)ccc1-c1cc2ccccc2oc1=O [Compound 20, 1-[3-methoxy-4-(2-oxo-2H-chromen-3-yl)-phenyl]-3-(4-morpholin-4-yl-phenyl)-thiourea] | 1100 | –
19 | COc1cc(NC(=S)NC(=O)/C=C/c2ccco2)ccc1-c1cc2ccccc2[nH]c1=O [Compound 15, (2E)-3-(2-furyl)-N-({[3-methoxy-4-(2-oxo-1,2-dihydroquinolin-3-yl)phenyl]amino}carbonothioyl)acrylamide] | – | GI50 (U937 cells): 63 nM and 210 nM
20 | COc1cc(NC(=S)NC(=O)/C=C/c2ccco2)ccc1-c1cc2ccccc2n(C)c1=O [Compound 17, (2E)-3-(2-furyl)-N-({[3-methoxy-4-(1-methyl-2-oxo-1,2-dihydroquinolin-3-yl)phenyl]amino}carbonothioyl)acrylamide] | 45 | –
21 | COc1cc(NC(=O)Nc2ccc(N(C)C)cc2)ccc1-c1cc2ccccc2oc1=O [Compound 06, 1-(4-dimethylamino-phenyl)-3-[3-methoxy-4-(2-oxo-2H-chromen-3-yl)-phenyl]-urea.HCl] | 320 | GI50 (U937 cells): 580 nM
